Measurements reported in patent publication US20250025493A1, “GLUCOHEXAOSE AND PREPARATION METHOD THEREFOR AND APPLICATION THEREOF, AND HAIR REGENERATION PREPARATION” (UNIVERSITY OF MACAU, priority 2021, published 2025).

Tests used:
[1] = test system: hair follicles in back unhairing area, androgenetic alopecia (AGA) mouse model; assay: Animal experiment, microneedle administration, mouse model of androgenetic alopecia (AGA); type: in vivo, C57BL/6J mice; conditions: microneedle administration on D-0, D-7, D-14, FIG. 5
Excerpt: (§1) The method is as follows: healthy male 7-week-old C57BL/6J mice were subjected to back unhairing treatment, wherein the hair on the back area was completely removed using an unhairing cream (Veet); starting from D-0, testosterone was topically applied to the back unhairing area of the mice every day to simulate androgenetic alopecia (AGA) for modeling, and the hair growth of the mice was photographed for recording; the gulcohexaose was microneedle administered to the back unhairing area of the mice every seven days (D-0, D-7, D-14), designated as OG6 group; a blank group (no applying) was set up, designated as a control group; and the hair growth on the back of the mice was observed on day 21.

[2] = test system: hair follicles in back unhairing area, androgenetic alopecia (AGA) mouse model; assay: Animal experiment, direct application, mouse model of androgenetic alopecia (AGA); type: in vivo, C57BL/6J mice; conditions: direct topical application on D-0, D-7, D-14, FIG. 3
Excerpt: The gulcohexaose sample prepared in example 1 was investigated for the biological effect in promoting hair follicle regeneration.
The method is as follows: healthy male 7-week-old C57BL/6J mice were subjected
as §1, with “to” for “The method is as follows: healthy male 7-week-old C57BL/6J mice were subjected to”, “establish a mouse model of” for “simulate”, “(AGA),” for “(AGA) for modeling,”, “directly and topically applied” for “microneedle administered”

[3] = test system: Ccl5 gene in mouse bone marrow-derived macrophages (mBMDM); assay: Verification experiment, real-time fluorescence quantitative PCR of Ccl5 gene expression in macrophages; type: cell-based, mouse (C57BL/6J); conditions: 50 ug/ml, FIG. 2
Excerpt: To verify the experimental results of eukaryotic mRNA sequencing analysis, a real-time fluorescence quantitative PCR experiment was used to determine the expression level of Ccl5 gene in macrophages stimulated by the gulcohexaose. The gulcohexaose prepared in example I was used to perform an induction and activation experiment on mouse bone marrow-derived macrophages (mBMDM, primary cells extracted from C57BL/6J mice by laboratory methods): • mouse bone marrow-derived monocytes (5×10^6 cells/10 cm petri dish) were seeded in 10 cm petri dishes and cultured using L929 cell culture supernatant obtained after 7 days of culture+RPMI-1640 medium+10% fetal bovine serum+1% penicillin-streptomycin in a 37° C., 5% CO2 incubator. […] After co-incubation for different time periods, the total RNA was extracted from the samples respectively, and the expression levels of Ccl5 cytokine in mouse bone marrow-derived macrophages before and after the stimulation by the gulcohexaose were detected by real-time quantitative PCR.

[4] = test system: androgenetic alopecia in mouse models; assay: Treatment of androgenetic alopecia in mouse models, summary over all administration routes; type: in vivo, mice; conditions: direct skin application, subcutaneous injection or microneedle release administration
Excerpt: The glucohexaose used in the present disclosure can be used to treat androgenetic alopecia in mouse models via any one of direct skin application administration, subcutaneous injection administration and microneedle release administration, and the hair formation is observed.

[5] = test system: hair follicles in back unhairing area, androgenetic alopecia (AGA) mouse model; assay: Animal experiment, subcutaneous injection, mouse model of androgenetic alopecia (AGA); type: in vivo, C57BL/6J mice; conditions: subcutaneous injection on D-0, D-7, D-14, FIG. 4
Excerpt: as §1, with “(AGA),” for “(AGA) for modeling,”, “subcutaneously injected” for “microneedle administered”

[6] = test system: mouse bone marrow-derived macrophages (mBMDM); assay: Induction and activation experiment on macrophages, eukaryotic mRNA sequencing of released cytokines; type: cell-based, mouse (C57BL/6J); conditions: 50 ug/ml, 24 h co-incubation, vs PBS group, FIG. 1
Method: The gulcohexaose sample prepared in example 1 above was used to perform an induction and activation experiment on mouse bone marrow-derived macrophages (mBMDM, primary cells extracted from C57BL/6J mice by laboratory methods):
Mouse bone marrow-derived monocytes (5×10^6 cells/10 cm petri dish) were seeded in 10 cm petri dishes and cultured using L929 cell culture supernatant obtained after 7 days of culture+RPMI-1640 medium+10% fetal bovine serum+1% penicillin-streptomycin in a 37° C., 5% CO2 incubator. After cell adherence, the cells were co-incubated with 50 ug/ml gulcohexaose for 24 h, designated as OG6 group, while a blank group (an experimental group to which the gulcohexaose was not added and to which an equal volume (10 μl) of PBS buffer (mainly consisted of Na2HPO4, KH2PO4, NaCl and KCl) was added) was set up, designated as PBS group. After 24 h of co-incubation, the total RNA was extracted from the sample using TRIzol (Invitrogen), eukaryotic mRNA sequencing experiment analysis and bioinformatics analysis were performed, and the difference between the expression level of cytokines released by the mouse bone marrow-derived macrophages stimulated by the gulcohexaose and the expression level of cytokines released in the blank group was compared. This experiment was repeated twice.

## Man-Man-Man-Man-Glc-Glc [gulcohexaose]
[1]; observed day 21
  hair growth at treated part compared with blank group: obviously denser than that on the mice in the blank group
[1]; testosterone-induced AGA mice
  hair follicle stage in back treatment area compared with blank group: the first to enter a growth period from a resting period and are the first to grow hair
[2]; day 21
  hair growth on day 21 compared with blank group: obviously superior to that on the mice in the blank group
[2]; testosterone-induced AGA mice
  hair follicle stage in back treatment area compared with blank group: have entered a growth period from a resting period and grew hair
[3]; 1 h, 12 h and 24 h, vs PBS group
  expression level of Ccl5 cytokine in macrophages (real-time quantitative PCR): rapidly upregulate the expression level of Ccl5 cytokine
[3]; 24 h
  expression level of Ccl5 cytokine in macrophages after 24 hours of stimulation: high expression level of Ccl5 cytokine in macrophages maintained
[4]
  adverse reactions: without any serious adverse reactions
  growth of hair on the back of mice: can effectively promote the growth of hair on the back of mice
[5]; day 21
  hair growth on day 21 compared with blank group: obviously superior to that on the mice in the blank group
[5]; testosterone-induced AGA mice
  hair follicle stage in back treatment area compared with blank group: have entered a growth period from a resting period and grew hair
[6]
  expression level of cytokines released by macrophages versus blank group (mRNA sequencing): can specifically activate macrophages to release a cytokine network mainly comprising CCL5 chemotactic factors
